Test results from patent publication US20090123420A1, “Regulation of T Cell-Mediated Immunity by D Isomers of Inhibitors of Indoleamine-2,3-Dioxygenase” (Medical College of Georgia Research Institute, Inc, priority 2003, published 2009).
Entries after “also recorded” stand apart in the source; their conditions may differ. No end group written: not given here.

Legend:
[1] = tested on: B16F10 melanomas; experiment: Established B16F10 melanoma model, 1MT with radiation or cyclophosphamide; format: in vivo, mouse; details: for effect on tumor growth, 1MT alone: established tumor, treatment from day 7, SQ pellets
Procedure: FIGS. 11A-11D. Administration of 1-MT enhances immune-mediated host anti-tumor effect when administered with radiation or cyclophosphamide. Mice were injected subcutaneously (SQ) with 4×10^4 B16F10 cells. […] Control mice received vehicle pellets without drug.
Mouse tumor models. C57BL/6 mice (Jackson, Bar Harbor, Me.) were implanted with tumors in the anteriomedial thigh, using either 4×10^4 B16F10 (ATCC, Bethesda, Md.) or 1×10^6 B78H1•GM-CSF. B78H1•GM-CSF cells recruit large numbers of APCs (Dranoff et al., Proc. Natl. Acad. Sci. USA, 1993; 90:3539) and were originally designed as a vaccine strategy. GMCSF-transfected tumors are immunogenic if lethally irradiated prior to injection (Borrello et al., Hum. Gene Ther., 1999; 10:1983), but live tumors grow progressively and create systemic tolerance to tumor antigens (Bronte et al., J. Immunol., 1999; 162:5728). Thus, B78H1•GM-CSF represented an excellent model for our studies, since it recruited many DCs but nevertheless […]. Tumors were 10-12 days after implantation, well prior to the stage of large, metastatic tumors (day 21) in which the hosts began to show alteration in spleen and non-tumor-draining LNs.
Not unexpected, given that the tumor had already been allowed to create tolerance in the host.

[2] = Comparative plasma pharmacokinetics of the stereo-isomers of 1-MT; format: in vivo, mouse
Procedure: Studies were conducted in conventional mice after IV, PO and SC doses of 50 mg/kg, and IP doses of 25 mg/kg, 50 mg/kg, and 100 mg/kg.

[3] = Pilot tissue biodistribution of D and L isomers after DL racemic mixture; format: in vivo, mouse; details: DL racemic mixture 10 mg/day SQ pellets, 72 hour infusion
Description: The results noted with spleen are particularly relevant because it is a lymphoid organ, and thus likely to be similar to tumor-draining lymph nodes.

[4] = tested on: IDO; experiment: Recall MLR of primed recipient LN cells with 1MT added to the MLR; format: cell-based, mouse; details: responders from recipients of TDLN DCs
[5] = tested on: Lewis Lung carcinoma (LLC); details: mouse, in vivo; cited from earlier work
[6] = tested on: P815 with IDO; details: concomitant administration; cited from earlier work
[7] = target: IDO (Mus musculus, UniProt P28776); experiment: MLR with sorted tumor-draining lymph node (TDLN) cells as stimulators and BM3 responder T cells; details: 10x
Procedure: T cell activation in MLR. BM3 responder T cells were prepared from spleen by nylon-wool enrichment. Stimulators (sorted DCs or unfractionated TDLN) were mixed with 1×10^5 BM3 responder cells in 200 ul IMDM at the ratios shown in each figure. After 3 days, proliferation was measured by 4-hour thymidine incorporation assay.
MLRs were thus “two-way” reactions. However, the small number of sorted DCs used as stimulators contributed negligible proliferation compared to the large population of TCR-transgenic responder cells. Since the relevant readout was dominant suppression, the two-way MLR design presented no problem in interpretation.
Pooled draining LN cells (4 nodes) were stained and fractionated by 4-color MoFlo cell sorting for the two populations shown in the schematic of FIG. 5B. All other cells were collected in a third fraction. Each fraction was then used as stimulators in MLRs, using 50,000 BM3 T cells as responders. The number of stimulators used in each MLR was adjusted to be the same as would have been present in 50,000 cells of the original LN preparation, based on the measured percentage of each sorted fraction. Thus, 500 cells of the sorted B220^+ CD11c^+ fraction were added per well, and 1500 cells of the CD25^+ CD4^+ fraction, while 48,000 cells of the “all other” fraction were used.

[8] = target: IDO (Homo sapiens, UniProt P14902); experiment: Allogeneic mixed-leukocyte reaction (MLR) with IDO-expressing human monocyte-derived DCs, T cell proliferation by thymidine incorporation; details: 250 uM in culture medium
Procedure: Replicate MLRs received each compound at the concentrations shown. Bars represent T cell proliferation at the end of the 5-day activation period.
After 5 days, proliferation was measured by 4 hour thymidine incorporation assay. “V”-bottom culture wells (Nunc) were used in MLR assays to maximize cell-cell contact.
DCs were used as stimulators in allogeneic mixed-leukocyte reactions (MLRs), with allogeneic lymphocytes as responder cells.

[9] = target: rabbit polyclonal anti-human IDO antibody (raised against the KLH-conjugated peptide of SEQ ID NO:1, affinity purified); experiment: flow cytometry of IFNγ-activated monocyte-derived macrophages; anti-IDO antibody pre-adsorbed with the immunizing peptide, which competes with IDO

Chain of IDO (Mus musculus, UniProt P28776) (P28776 whole entry): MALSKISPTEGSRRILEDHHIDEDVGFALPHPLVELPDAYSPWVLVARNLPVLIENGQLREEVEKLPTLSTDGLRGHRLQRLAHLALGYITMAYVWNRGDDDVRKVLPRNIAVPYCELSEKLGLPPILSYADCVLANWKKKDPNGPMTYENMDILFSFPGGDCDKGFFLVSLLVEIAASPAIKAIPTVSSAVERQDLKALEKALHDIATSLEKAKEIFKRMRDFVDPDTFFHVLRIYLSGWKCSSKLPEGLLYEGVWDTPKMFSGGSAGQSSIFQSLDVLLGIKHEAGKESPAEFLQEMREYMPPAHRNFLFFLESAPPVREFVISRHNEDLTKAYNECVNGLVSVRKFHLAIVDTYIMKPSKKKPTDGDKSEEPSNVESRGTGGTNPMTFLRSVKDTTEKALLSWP
Chain of IDO (Homo sapiens, UniProt P14902) (P14902 whole entry): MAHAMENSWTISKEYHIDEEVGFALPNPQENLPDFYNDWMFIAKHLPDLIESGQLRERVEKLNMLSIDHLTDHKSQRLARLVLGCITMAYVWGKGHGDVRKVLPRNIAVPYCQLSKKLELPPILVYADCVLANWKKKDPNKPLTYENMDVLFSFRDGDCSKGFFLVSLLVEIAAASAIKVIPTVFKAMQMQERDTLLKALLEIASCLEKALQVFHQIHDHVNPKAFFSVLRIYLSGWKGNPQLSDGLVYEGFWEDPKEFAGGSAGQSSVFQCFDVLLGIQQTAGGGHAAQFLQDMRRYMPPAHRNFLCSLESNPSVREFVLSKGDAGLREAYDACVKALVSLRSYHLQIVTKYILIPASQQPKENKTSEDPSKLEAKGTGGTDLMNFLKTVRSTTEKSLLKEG

## Cn1cc(CC(N)C(=O)O)c2ccccc21 (racemic) [DL racemic form of 1MT, reference compound]
[1]; 20 mg per mouse per day DL racemic, cyclophosphamide 150 mg/kg x 1 dose
  tumor growth, 1MT with cyclophosphamide: significantly reduce tumor growth
[1]; 20 mg per mouse per day DL racemic, total-body radiation 500 cGy single dose
  tumor growth, 1MT with radiation: significantly reduce tumor growth
[1]
  effect on tumor growth, 1MT alone: no effect

## Cn1cc(C[C@@H](N)C(=O)O)c2ccccc21 [1-methyl-D-tryptophan]
[1]; replicate radiation studies
  anti-tumor effect of combination with radiation: enhanced effect over radiation alone
[2]; D versus L isomer
  apparent volume of distribution: relatively greater
[2]; mouse, plasma, po, 50 mg/kg
  bioavailability: 64%
[3]
  accumulation in liver, D versus L isomer: at least equal, and possibly preferential, accumulation
  distribution into muscle and spleen, D versus L isomer: equivalent distribution
  levels in plasma and in brain, D versus L isomer: lower levels

## Cn1cc(C[C@H](N)C(=O)O)c2ccccc21 [1MT, 1-methyl-tryptophan]
[4]
  suppression in recall MLRs: no effect; also recorded: not restored
[1]; RAG1-knockout hosts
  effect of 1MT over cyclophosphamide alone in immunodeficient hosts: no enhancing effect
[1]
  effect on tumor growth, 1MT alone: no effect
[5]
  tumor outgrowth: significantly delayed tumor outgrowth
[6]
  IDO-mediated prevention of tumor rejection by pre-immunized hosts: substantially reversed

## Cn1cc(C[C@H](N)C(=O)O)c2ccccc21 [L 1-MT, reference compound]
[2]; PO
  oral bioavailability: 105%

## N[C@@H](Cc1c[nH]c2ccccc12)C(=O)O [L-tryptophan]
[7]; 250 uM, IDO-sufficient host
  suppression by pDCs with excess L-tryptophan: abrogated; also recorded: abrogates suppression
[7]; TDLN cells from IDO-knockout mice
  effect of excess L-tryptophan with IDO-knockout pDCs: no effect
[8]
  DC-mediated inhibition of T cell proliferation with supra-physiologic tryptophan: completely reversed

## LIESGQLRERVEKLNMLC (also: conjugated to keyhole limpet carrier protein for immunisation) [immunizing peptide … (SEQ ID NO:1), based on human IDO]
[9]
  reduction of flow cytometry signal: > 95%
